# Measured values as given in US11840686B2, “Modulation of prekallikrein (PKK) expression” (Ionis Pharmaceuticals, Inc., priority 2013, dated 2023).
# Strand notation (5' to 3'): a small letter for the sugar, then the base; units joined by * are phosphorothioate-linked, units joined directly phosphodiester-linked; [ ] holds rarer units or linkages, { } end groups; capitals alone tell only the bases. e = 2'-O-(2-methoxyethyl) (MOE); k = constrained ethyl (cEt); [5mC] = 5-methylcytosine; d = 2'-deoxy (DNA)
# Test system: human PKK mRNA
# Assay: Antisense inhibition of human PKK mRNA in HepaRG cells, 1,000 nM, MOE/deoxy/cEt oligonucleotides (Example 3)
# Type: cell-based
# Summary of the method: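 HepaRG cells at 20,000 per well electroporated with 1,000 nM 16-mer MOE/cEt/deoxy gapmers (phosphorothioate, 5-methylcytosine). After about 24 h, PKK mRNA measured by qRT-PCR with primer probe set RTS3454, normalized to RIBOGREEN total RNA. Reported as percent inhibition versus untreated cells.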
# [1] = HepaRG cells, electroporation with 1,000 nM antisense oligonucleotide, approx. 24 hours, PKK mRNA by RT-PCR (RTS3454), relative to untreated control cells, Table 25 experiment
# [2] = Table 30, human PKK mRNA, HepaRG cells, 1,000 nM antisense oligonucleotide
# [3] = HepaRG cells, electroporation with 1,000 nM antisense oligonucleotide, approximately 24 hours, primer probe set RTS3454, relative to untreated control cells, experiment of Table 24
# [4] = Table 19, HepaRG cells, electroporation with 1,000 nM antisense oligonucleotide, approximately 24 hours, PKK mRNA by RT-PCR (RTS3454), relative to untreated control cells
# [5] = Table 20, HepaRG cells, electroporation with 1,000 nM antisense oligonucleotide, approximately 24 hours, PKK mRNA by RT-PCR (RTS3454), relative to untreated control cells
# [6] = Table 22 experiment, HepaRG cells, electroporation with 1,000 nM antisense oligonucleotide, approx. 24 hours, PKK mRNA by RT-PCR (RTS3454), relative to untreated control cells
# [7] = PKK mRNA, HepaRG cells, 1,000 nM antisense oligonucleotide, Table 31
# [8] = Table 21 experiment, HepaRG cells, electroporation with 1,000 nM antisense oligonucleotide, approx. 24 hours, PKK mRNA by RT-PCR (RTS3454), relative to untreated control cells
# [9] = HepaRG cells, 1,000 nM antisense oligonucleotide, Table 29
# [10] = Table 28, HepaRG cells, 1,000 nM antisense oligonucleotide, human PKK mRNA
# [11] = HepaRG cells, electroporation with 1,000 nM antisense oligonucleotide, approx. 24 hours, PKK mRNA by RT-PCR (RTS3454), relative to untreated control cells, Table 26 experiment
# [12] = Table 27, HepaRG cells, 1,000 nM antisense oligonucleotide, human PKK mRNA
substance,measurement,setting,value
548211 (eA*e[5mC]*k[5mC]*dA*dA*d[5mC]*dA*dA*dT*d[5mC]*dT*d[5mC]*dT*kG*kG*eT; antisense) [compound 548211],% inhibition,[1],51%
548400 (eG*eG*kG*d[5mC]*dT*d[5mC]*d[5mC]*dT*dA*dT*dT*d[5mC]*d[5mC]*kA*k[5mC]*e[5mC]; antisense) [compound 548400],% inhibition,[2],13%
548208 (e[5mC]*eT*k[5mC]*dT*dG*dG*dT*d[5mC]*dA*dA*dT*d[5mC]*dT*kG*kA*e[5mC]; antisense) [compound 548208],% inhibition,[1],19%
548025 (eT*eG*kA*dG*d[5mC]*dT*dG*dT*d[5mC]*dA*dG*d[5mC]*dT*kT*k[5mC]*eA; antisense) [compound 548025],% inhibition,[3],66%
548091 (antisense eT*eG*k[5mC]*dA*dA*dA*d[5mC]*dT*dA*dA*dG*dG*dG*kA*k[5mC]*e[5mC]) [compound 548091],% inhibition,[4],62%
547911 (eT*eG*kG*d[5mC]*dA*dA*d[5mC]*d[5mC]*dA*dA*dT*dT*dT*k[5mC]*kT*eG; antisense) [compound 547911],% inhibition,[5],0%
same,% inhibition,[6],15%
548446 (antisense eT*e[5mC]*k[5mC]*dT*dA*dT*dG*dT*d[5mC]*dA*d[5mC]*dT*dG*kT*kA*e[5mC]) [compound 548446],% inhibition,[2],16%
548664 (antisense eG*e[5mC]*kG*dG*dG*dT*dG*dG*dT*d[5mC]*dT*dT*dG*k[5mC]*kA*e[5mC]) [compound 548664],% inhibition,[7],38%
547837 (eT*eG*kT*d[5mC]*d[5mC]*dA*dG*dA*dA*dA*d[5mC]*dT*dG*k[5mC]*kA*e[5mC]; antisense) [compound 547837],% inhibition,[8],51%
548588 (eA*eG*k[5mC]*dT*d[5mC]*dA*d[5mC]*dA*d[5mC]*d[5mC]*d[5mC]*dA*dA*kA*kA*eA; antisense) [compound 548588],% inhibition,[9],10%
548009 (eG*eT*kT*dA*d[5mC]*dA*d[5mC]*dA*dA*dT*d[5mC]*dT*d[5mC]*kA*kA*eA; antisense) [compound 548009],% inhibition,[3],47%
548020 (eT*e[5mC]*k[5mC]*d[5mC]*d[5mC]*dA*dA*dG*dA*dA*dG*dA*dG*kT*kT*eT; antisense) [compound 548020],% inhibition,[3],76%
548506 (antisense eG*eA*kA*dG*d[5mC]*d[5mC]*dA*dT*dT*d[5mC]*dA*d[5mC]*dT*kG*k[5mC]*eA) [compound 548506],% inhibition,[10],32%
548238 (eA*e[5mC]*kT*d[5mC]*dG*d[5mC]*d[5mC]*dT*dT*dT*dG*dT*dG*kA*k[5mC]*eT; antisense) [compound 548238],% inhibition,[11],31%
548590 (eT*eG*kG*dT*d[5mC]*dA*dT*dG*dT*d[5mC]*dA*dA*d[5mC]*kT*kG*eT; antisense) [compound 548590],% inhibition,[9],35%
548627 (antisense e[5mC]*e[5mC]*k[5mC]*dA*d[5mC]*dA*dT*dG*dT*dA*d[5mC]*d[5mC]*dA*k[5mC]*k[5mC]*eG) [compound 548627],% inhibition,[7],22%
548270 (antisense e[5mC]*eT*kG*d[5mC]*dT*dG*dG*dT*dT*dT*dT*dA*dG*kA*k[5mC]*e[5mC]) [compound 548270],% inhibition,[11],28%
548158 (eG*e[5mC]*kA*dT*dT*dG*dT*d[5mC]*dA*dG*d[5mC]*d[5mC]*d[5mC]*k[5mC]*kT*eG; antisense) [compound 548158],% inhibition,[1],18%
547842 (antisense eG*eA*kT*dG*dA*d[5mC]*d[5mC]*dA*d[5mC]*dA*dT*dT*dG*k[5mC]*kT*eT) [compound 547842],% inhibition,[8],10%
547751 (eT*eG*kA*dA*d[5mC]*dG*dG*dT*d[5mC]*dT*dT*d[5mC]*dA*kA*kG*e[5mC]; antisense) [compound 547751],% inhibition,[8],0%
547771 (antisense e[5mC]*eT*kT*dG*dG*dA*dG*dG*dT*dG*dA*dG*dT*k[5mC]*kT*e[5mC]) [compound 547771],% inhibition,[8],60%
548541 (antisense eG*eG*k[5mC]*dA*d[5mC]*dT*dG*dG*dT*d[5mC]*dA*dT*dG*kG*kA*e[5mC]) [compound 548541],% inhibition,[9],39%
548481 (eG*eT*kT*d[5mC]*d[5mC]*d[5mC]*dT*dG*dA*dG*dG*dA*dA*k[5mC]*kG*eG; antisense) [compound 548481],% inhibition,[10],2%
547931 (eG*eT*kG*dA*dT*dA*dG*dG*dT*dG*d[5mC]*dA*dG*kA*kT*eG; antisense) [compound 547931],% inhibition,"HepaRG cells, electroporation with 1,000 nM antisense oligonucleotide, approximately 24 hours, primer probe set RTS3454, relative to untreated control cells, experiment of Table 23",58%
548381 (e[5mC]*e[5mC]*k[5mC]*dA*d[5mC]*dT*dA*d[5mC]*d[5mC]*dA*dT*dT*dT*kG*kG*eG; antisense) [compound 548381],% inhibition,[12],0%
548633 (antisense e[5mC]*eA*kA*dG*dG*d[5mC]*dA*dT*dG*dT*dG*dT*dG*k[5mC]*kA*e[5mC]) [compound 548633],% inhibition,[7],41%
548507 (antisense eA*eA*kA*d[5mC]*dT*d[5mC]*d[5mC]*dT*d[5mC]*dT*d[5mC]*dA*dA*kG*kG*e[5mC]) [compound 548507],% inhibition,[10],53%
548189 (e[5mC]*eA*kT*dG*dA*dA*d[5mC]*dA*dT*d[5mC]*d[5mC]*dT*dA*kT*k[5mC]*e[5mC]; antisense) [compound 548189],% inhibition,[1],24%
548102 (antisense eG*eT*kA*d[5mC]*dT*d[5mC]*dA*dG*d[5mC]*dG*dA*d[5mC]*dT*kT*kT*eG) [compound 548102],% inhibition,[4],58%
547880 (eT*eT*k[5mC]*dA*dA*d[5mC]*dA*d[5mC]*dT*dG*d[5mC]*dT*dA*kA*k[5mC]*e[5mC]; antisense) [compound 547880],% inhibition,[5],69%
same,% inhibition,[6],59%
548379 (eA*eT*k[5mC]*dG*dA*dA*d[5mC]*dT*d[5mC]*dT*dG*d[5mC]*dT*kT*kG*eA; antisense) [compound 548379],% inhibition,[12],44%
547820 (eT*e[5mC]*kA*dT*dT*dG*dA*dT*dT*dG*dA*dA*d[5mC]*kT*kT*eG; antisense) [compound 547820],% inhibition,[8],0%
548374 (eG*e[5mC]*kA*d[5mC]*d[5mC]*d[5mC]*dT*dT*dT*dT*d[5mC]*dA*dT*kT*kG*eA; antisense) [compound 548374],% inhibition,[12],41%
547912 (eA*eT*k[5mC]*d[5mC]*dA*d[5mC]*dA*dT*d[5mC]*dT*dG*dA*dG*kA*kA*e[5mC]; antisense) [compound 547912],% inhibition,[5],23%
same,% inhibition,[6],53%
548336 (antisense eG*e[5mC]*kA*d[5mC]*dA*dT*dT*dA*dG*dG*dA*dG*dG*kT*kA*eG) [compound 548336],% inhibition,[12],1%
548491 (antisense eT*eG*kG*d[5mC]*d[5mC]*dA*dA*dG*d[5mC]*dA*dA*d[5mC]*d[5mC]*kA*kG*eT) [compound 548491],% inhibition,[10],57%
